Earlier results as cited in patent US20040266821A1, “Acylated piperidine derivatives as melanocortin-4 receptor agonists” (priority 2001, published 2004).

Legend:
[1] = not given; remark: listed apart in the source
[2] = oral route

Compound	duration of effect (after an oral dose)	onset of action (after an oral dose)	share of men/patients with adequate response (oral)	duration of action ([1]; in vivo)	time to onset of erection ([1]; in vivo)	response rate ([1]; injected intramuscularly or subcutaneously)	absorption into the systemic circulation [2]
Cc1ccc(N(CC2=NCCN2)c2cccc(O)c2)cc1 [phentolamine]	2 h	5 to 30 min	35-40%				
Ac-Nle-c[Asp-His-DPhe-Arg-Trp-Lys]-NH2 [MT-II]				approximately 2.5 hours	10 to 20 min	75%	not absorbed into the systemic circulation
